Assay: Differential Scanning Calorimetry (DSC) detection of incompatibilities, binary mixtures in equal parts
Assay type: physicochemical
Settings: mixture in equal parts with ibuprofen, heating rate 5° C./min
Experimental: The technique called Differential Scanning calorimetry or DSC has been used for the thermal detection of possible incompatibilities among ingredients of the pharmaceutical formulation described in the present invention. Thus, by using a differential Scanning calorimeter, DSC-7 (Perkin-Elmer, USA) at a heating rate of the samples of 5° C./min, the quantity of energy or enthalpy required to keep the sample at the same temperature as that of the reference and that at each of the test temperatures is measured. […] However, when phase changes occur, the isothermal energy required is registered as an electric signal generated by thermocouples. It is understood that a change of phase occurs (or appearance of incompatibility) if the expected temperature value varies above the considered environment by 10% with respect to its original. Said error is carried from that produced typically in the analytical measurements (±5%, typical in terms of reproducibility), the uncertainty of apparatus calibration (±1%), the accuracy of the micromixture of ingredients achieved (±3%), and the rapid heating rates (±1% for heating>1° C./min). DSC is widely used in the industry as a quality control instrument due to its applicability in assessing the purity of the samples and studying the curing of the polymers. […]

Compound | thermal/physical incompatibility with ibuprofen by DSC
CCCCCCCCCCCCCCCCCCOC(=O)/C=C/C(=O)[O-].[Na+] [sodium stearyl fumarate] | does not show any physical incompatibility
magnesium stearate | incompatible eutectic mixture
